How the values were obtained:
primary mouse adipocytes = assay: 2-deoxy-3H-glucose uptake in primary mouse adipocytes; format: cell-based
Description: (§1) Mouse and human pre-adipocytes culture and differentiation. Inguinal fat pads from 4-8 week old C57BL/6J male and female mice were dissected and mechanically digested for 10 min using spring scissors. Digested tissues were incubated in WAT isolation buffer (10 ml PBS, 2.4 U/ml dispase II (#04942078001, Roche), 10 mg/ml collagenase D (#11088858001, Roche) at 37° C. for 45 min. 20 mL growth media was added and the tissue suspension was filtered through a 100-μm cell strainer and centrifuged at 600×g for 5 min. The cell pellets were resuspended in 20 mL growth media, filtered through a 40-μm cell strainer, centrifuged at 600×g for 5 min, resuspended in 10 mL growth media, and plated in 10-cm collagen-coated dishes. The cells were cultured in growth media (DMEM/F-12 Glutamax, Thermo Fisher Scientific #10565018) supplemented with 10% fetal bovine serum. Two days post-confluency, differentiation was induced with growth media containing 1 μM rosiglitazone, 0.5 mM isobutylmethylxanthine, 1 μM dexamethasone, 5 μg/mL insulin. After two days, cells were re-fed with growth media containing 1 μM rosiglitazone and 5 μg/mL insulin. Cells were fully differentiated after 6-8 days. For ISM1 knockdown or overexpression in primary adipocytes using adenovirus, 500 μL crude virus was mixed with 500 μL fresh growth media containing 1 μM rosiglitazone and 5 μg/mL insulin was added to each well at day 2 of differentiation. At day 4, virus-containing media was removed and 500 μL fresh growth media without stimulators was added to each well. SGBS cells were differentiated as described previously (Fischer-Posovszky et al., 2008; Wabitsch et al., 2001). Briefly, cells were cultured in growth media DMEM/F-12 Glutamax, supplemented with 10% fetal bovine serum, 33 uM biotin, and 17 uM pantothenate. Two days post confluency, differentiation was induced with serum-free DMEM/F12 media containing 33 uM biotin, 17 uM pantothenate, 0.01 mg/ml transferrin, 20 nM insulin, 100 nM cortisol, 0.2 nM triiodothyronine, 25 nM dexamethasone, 0.25 mM isobutyl methylxanthine, and 2 μM rosiglitazone. After four days, cells were re-fed with growth media containing 0.01 mg/ml transferrin 20 nM insulin, 100 nM cortisol, 0.2 nM triiodothyronine. Cells were fully differentiated after day 8-10.
(§2) Glucose uptake. Glucose uptake was performed as previously described (You et al., 2017). Briefly, 2-Deoxy-d-[2,6-3H]-glucose was purchased from PerkinElmer NEN radiochemicals. Fully differentiated adipocytes were washed with KRH buffer and starved in 0.5% BSA in KRH buffer for 4 h. Indicated concentrations of insulin or ISM1 were added at indicated time points. Cells were treated with a mixture of 500 μM 2-deoxy-D-glucose and 1.71 μCimL^−1 2-Deoxy-D-[1,2-3H (N)]-glucose for another 10 min followed by three washes using ice cold KRH buffer containing 200 mM glucose. The passive glucose uptake in the presence of 50 uM CytoB was less than 12% of the total glucose uptake. Cells were solubilized in 1% SDS and radioactivity was measured by liquid scintillation counting.

pAKT^S473 [1] = assay: Signaling induced by ISM1 or insulin in 3T3-F442A cells pre-treated with inhibitors; format: cell-based; conditions: for effect of inhibitor on pAKT^S473 phosphorylation induced by ISM1 and insulin: ISM1 100 nM or insulin 100 nM, 3T3-F442A cells
Description: (§3) Western blots and molecular analyses. For western blotting, homogenized tissues or whole-cell lysates, samples were lysed in RIPA buffer containing protease inhibitor cocktail (Roche) and phosphatase inhibitor cocktail (Roche). Cell lysates were centrifuged at 14,000×g for 15 min and supernatants were prepared in 4×LDS Sample Buffer (Invitrogen) and separated by SDS-PAGE and transferred to Immobilon 0.45 μm membranes (Millipore). For Western blotting of plasma samples, 1 μl of plasma was prepared in 2× sample buffer (Invitrogen) with reducing agent, boiled, and analyzed using Western blot against indicated antibody. Protein kinase array (R&D systems ARY003B) was performed according to the manufacturers' description. All antibodies used in this paper are described in STAR methods.

DIO mice = assay: Therapeutic ISM1, Metformin or combined administration for 21 days in DIO mice; format: in vivo, mouse; conditions: daily for 21 days; compared with vehicle
Description: Therapeutic ISM1 recombinant protein administration in vivo. All pharmacologic studies using recombinant ISM1 protein were performed in mice with established diet-induced obesity or non-alcoholic fatty liver disease (NAFLD). For all experiments, male C57BL/6J mice purchased from Jax were fed either a high-fat diet (#D12492, Research Diets) or a NAFLD diet (#D09100310, Research Diets) prior to ISM1 protein injections. In all experiments, mice were mock injected with saline for three days prior to protein or drug injections to prevent stress-induced weight loss. Mice were I.P. injected with vehicle (saline) or indicated doses of ISM1 protein diluted in saline. For the 14-day experiments in NAFLD mice, 7-weeks old mice were fed with NAFLD diet for 3 weeks and then mock injected with saline for 3 days prior to protein injections. The induction of lipid accumulation with NAFLD diet was verified by the significant increase in hepatic lipid levels compared with mice on chow diet at the same time point. NAFLD mice were then daily I.P. injected with either vehicle (saline containing 5% DMSO and 10% Kolliphor) or indicated doses of ISM1 protein (500 μg/kg or 5 mg/kg) or with FXR agonist (30 mg/kg, GW4064, Sigma-Aldrich, #G5172) diluted in vehicle (saline containing 5% DMSO and 10% Kolliphor). For the 21-day experiments in HFD mice, mice were mock injected with saline for three days prior to protein injections. Mice were then daily I.P. injected with either vehicle (saline) or 5 mg/kg of ISM1 protein diluted in saline. Metformin (100 mg/kg, Sigma, #317240) was diluted in saline and daily administered by oral gavage. All groups received control injections by I.P. and oral gavage. At the end of the experiments, mice and tissue weights were recorded. Tissues and plasma were collected and frozen for further analyses.
Glucose tolerance and insulin tolerance tests. For glucose tolerance tests, mice were fasted overnight and I.P. injected with glucose at 2 g/kg body weight. Blood glucose levels were measured at 0, 15, 30, 45, 60, 90 and 120 mins. For insulin tolerance tests, mice were fasted for 2 h, and I.P. injected with 0.75 U/kg insulin. Blood glucose levels were measured at 0, 15, 30, 45, 60, 90 and 120 mins.

human SGBS adipocytes = assay: 2-deoxy-3H-glucose uptake in human SGBS adipocytes; format: cell-based
Description: as §1, §2

pAKT^S473 [2] = assay: pAKT S473 signaling in 3T3-F442A cells (phosphokinase array, western blot); format: cell-based; conditions: 5 min
Description: as §3

srebp1c = assay: Lipogenic gene and SREBP-1c protein expression in primary adipocytes; format: cell-based, mouse; conditions: primary adipocytes
Description: (§4) Gene expression analysis. Total RNA from cultured cells or tissues was isolated using TRIzol (Thermo Fischer Scientific) and Rneasy mini kits (QIAGEN). RNA was reverse transcribed using the ABI high capacity cDNA synthesis kit. For qRT-PCR analysis, cDNA, primers and SYBR-green fluorescent dye (ABI) were used. Relative mRNA expression was determined by normalization with Cyclophilin levels using the ΔΔCt method.
as §3

GLUT4 = GLUT4 translocation to the plasma membrane in primary adipocytes (immunostaining, fractionation); format: cell-based, mouse; conditions: 100 nM
Description: Biochemical analyses. Plasma insulin levels were measured using the Ultra-Sensitive Mouse Insulin ELISA kit (Crystal Chem Inc #90080). Plasma triglycerides were measured with Infinity triglyceride measurement kit (Thermo #TR22421) and tissue triglycerides were measured with a Triglyceride Colorimetric Assay Kit (Cayman #10010303). Lipolysis was measured in day 5 differentiated adipocytes after 4 hours of protein treatment using a glycerol release assay according to the protocol provided by the manufacturer (Abcam #ab133130). Plasma membrane protein extractions were performed according to the manufacturer's protocol (Abcam #ab65400).
Immunocytochemistry. Primary mouse preadipocytes were seeded onto collagen-coated 22 mm×22 mm coverslips and differentiated using the method above. On day 8, differentiated adipocytes were washed with PBS and starved in 0.5% BSA in KRH buffer (50 mM HEPES, 136 mM NaCl, 1.25 mM MgSO4, 1.25 mM CaCl2, 4.7 mM KCl, pH 7.4) for 3.5 h. Cells were treated with insulin or ISM1 for 30 min, followed by three washes with cold PBS. Cells were fixed with 4% PFA in PBS for 15 min at room temperature. After blocking with 2% BSA, 5% goat serum, 0.2% Triton-X in PBS for 1 hr, cells were incubated with diluted primary antibody at 4° C. overnight. The next day, cells were washed and incubated with secondary antibody on ice for 1 hr. Cells were imaged using confocal microscope (Leica TCS SP8). Hoechst (#33342, thermo fisher) was used as counterstain.

pTyr = assay: Western blot of pTyr levels; format: cell-based; conditions: 100 nM; 2 minutes
Description: as §3

[3] = tested on: IGF-I-Receptor β Tyr1135/1136 or Insulin receptor Tyr1150/1151; assay: Western blot of phosphorylated insulin and IGF receptors in 3T3-F442A cells; format: cell-based; conditions: 100 nM; 2 minutes
Description: as §3

[4] = tested on: pAKT^T308, S6^S235/S236, PRAS40^Thr246, ERK1/2, PKA, PDK1, GSK3β; assay: Time-course western blot of intracellular signaling pathways in 3T3-F442A cells; format: cell-based; conditions: 100 nM; time course
Description: as §3

AML12 hepatocytes = assay: Lipogenesis assay (3H-acetate incorporation into lipids) in AML12 hepatocytes; format: cell-based, mouse; conditions: 50 nM insulin; 24 h
Description: Lipogenesis Assay. Primary hepatocytes or AML12 hepatocytes were washed twice with warm PBS and starved in serum-free DMEM overnight. Indicated concentrations of insulin with or without ISM1 were added at the same time. After 24 h, a mixture of 10 μM cold acetate and 2 μCi [3H]-Acetate (#NET003H005MC, PerkinElmer) was added to each well and cells were incubated for another 4 hr. Cells were washed with PBS twice and lysed using 0.1 N hydrogen chloride. Lipids were extracted by 2:1 chloroform-methanol (v/v). After centrifugation at 3000×g for 10 min, the lower phase was transferred to scintillation vials and radioactivity was measured by liquid scintillation counting.

SREBP1c, FAS, ACC = assay: Lipogenic protein and gene expression in AML12 hepatocytes; format: cell-based, mouse; conditions: 50 nM insulin, with or without ISM1; 24 h
Description: as §4, §3

[5] = tested on: differentiated 3T3-L1 adipocytes; assay: 2-deoxy-3H-glucose uptake in differentiated 3T3-L1 adipocytes; format: cell-based; conditions: 1 h
Description: as §2

[6] = pre-treated for 30 min, ISM1 or insulin 100 nM

C=C1[C@@H](C)[C@H]2[C@H](Cc3ccccc3)NC(=O)[C@]23OC(=O)/C=C/[C@H](O)CCC[C@@H](C)C/C=C/[C@H]3[C@@H]1O [CytoB, reference compound]
passive glucose uptake as share of total glucose uptake (primary mouse adipocytes; 50 uM CytoB): less than 12%

COc1ccccc1N1CCN(c2ncnc3n[nH]c(Br)c23)CC1 [DG2]
effect of inhibitor on S6^S235/S236 (pAKT^S473 [1]; [6]): dose-dependently inhibited
pAKT in presence of inhibitor (pAKT^S473 [1]; [6]): remained intact

CCOc1cn(-c2ccc(F)cc2C)nc1C(=O)Nc1ccc(Oc2ccnc3cc(OC)c(OC)cc23)c(F)c1 [LDC1267]
effect of inhibitor on signaling induced by PDGFββ or insulin (pAKT^S473 [1]; any of the doses tested, insulin 200 nM, PDGF-ββ 20 ng/ml): neither the signaling induced by PDGFββ or insulin are inhibited
effect of inhibitor on ISM1-induced pAKT signaling (pAKT^S473 [1]; pre-treated for 30 min, ISM1 200 nM): inhibited

CN(C)C(=N)N=C(N)N [Metformin, reference compound]
fasting blood glucose (DIO mice): lower
glucose tolerance (GTT) (DIO mice): comparable effects on improving glucose tolerance

C[C@]1(O)C[C@@H](c2nc(-c3ccc4ccc(-c5ccccc5)nc4c3)c3c(N)nccn32)C1 [OSI-906, reference compound]
insulin signaling in presence of inhibitor (pAKT^S473 [1]; 1000 nM OSI-906, insulin 100 nM): completely abolished
ISM1 signaling in presence of inhibitor (pAKT^S473 [1]; even at 1000 nM OSI-906, ISM1 100 nM): intact
insulin-induced glucose uptake in presence of inhibitor (human SGBS adipocytes; 50 nM OSI-906): significantly reduced
ISM1-induced glucose uptake in presence of inhibitor (human SGBS adipocytes; 50 nM OSI-906, 100 nM ISM1): not affected

COc1ncc(-c2ccc3nccc(-c4ccnnc4)c3c2)cc1NS(=O)(=O)c1ccc(F)cc1F [Omipalisib]
effect of inhibitor on pAKT^S473 phosphorylation induced by ISM1 and insulin (pAKT^S473 [1]): completely block

Cc1ccc([N+](=O)[O-])cc1S(=O)(=O)N(C)/N=C/c1cnc2ccc(Br)cn12 [PIK]
effect of inhibitor on pAKT^S473 phosphorylation induced by ISM1 and insulin (pAKT^S473 [1]): completely block

CCC(=O)N1CCN(c2ccc(-n3c(=O)ccc4cnc5ccc(-c6cnc7ccccc7c6)cc5c43)cc2C(F)(F)F)CC1 [Torin]
effect of inhibitor on pAKT^S473 phosphorylation induced by ISM1 and insulin (pAKT^S473 [1]): fully ablates

Thrombospondin-1: his-tagged mouse Thrombospondin-1, control protein containing thrombospondin domains [reference compound]
bioactivity on pAKT^S473 (western blot) (pAKT^S473 [2]; 100 nM): no bioactivity

albumin [reference compound]
glucose uptake (protein control) (primary mouse adipocytes; 100 nM): no effect

insulin [reference compound]
srebp1c expression under basal conditions (srebp1c): induces srebp1c expression
glucose uptake induction compared with ISM1 (primary mouse adipocytes; 1 h): higher glucose induction than ISM1
GLUT4 in plasma membrane fraction (biochemical fractionation) (GLUT4; 4 h): translocation of GLUT4 to the plasma membrane
GLUT4 at cell surface (immunostaining, confocal microscopy) (GLUT4; compared with control cells): higher levels of GLUT4 at cell surface
dose at which dose-dependent increase in pAKT^S473 phosphorylation starts (pAKT^S473 [2]; increasing doses): 10 nM
tyrosine phosphorylation of proteins (pTyr): induces phosphorylation of its receptors at larger molecular weights
IGF-R/IR phosphorylation [3]: induced IGF-R/IR phosphorylation
pAKT^T308 phosphorylation [4]: phosphorylation at pAKT^T308 at all time points
de novo lipogenesis (AML12 hepatocytes): significant induction of lipogenesis
SREBP1c cleavage, FAS and ACC protein expression (SREBP1c, FAS, ACC): increased expression of pre-SREBP1c as well as the cleaved SREBP1, and increased protein expression of FAS and ACC
induction of glucose uptake [5]: ~40 fold
concentration from which glucose uptake is increased (human SGBS adipocytes; doses ranging from 10 nM to 200 nM): 20 nM
